Article PMC7838189, “Natural podophyllotoxin analog 4DPG attenuates EMT and colorectal cancer progression via activation of checkpoint kinase 2” (Cell Death Discovery, 2021)

What was measured:
[1] = system: tumor tissues of orthotopic rat colorectal carcinoma; test: Immunohistochemical analysis of tumor tissues; assay type: in vivo, Wistar rats; details: 25 mg/kg, vs saline-treated group
Description: The procedure was performed following our pre-standardized protocol with minor modifications. Paraffin-embedded tissue sections were prepared from the tumors of saline, 5-FU, and 4DPG-treated groups of animals. Primary antibodies used: p-Chk2 (T68), Chk2, p53, p-Vimentin (S38) and Vimentin at 1:150 dilution for overnight at 4 °C.

SW-620/5-FU-R cells = test: Immunocytochemistry of Vimentin; assay type: cell-based; details: 48 h
Description: 4DPG, a podophyllotoxin class of natural product anticancer compound (Supplementary Fig. S2A) has been recently described by our research group for its potent antitumor and anti-metastatic properties against aggressive cancers[31],[32]. Further, 4DPG augments phosphorylation and activation of Chk2 (Thr68) leading to suppression of EMT and invasiveness of p53-defective cancer cells. To investigate the effect of 4DPG on phosphorylation and expression levels of Chk2 in HCT-116/5-FU-R, SW-620/5-FU-R, and HT-29/5-FU-R cells, we treated these cells for 48 h with increasing concentrations of the compound, and whole-cell lysates were subjected to western blotting analysis. […] To determine the effect of 4DPG on the invasion abilities of these 5-FU-R cells, we performed in situ fluorescent gelatin degradation assay following our pre-standardized protocol[31],[37]. In physiological conditions, this assay mimics the extracellular matrix degradation by aggressive tumor cells undergoing invasion–metastasis process.
To examine whether 4DPG-mediated repression of Vimentin and invasiveness is a Chk2-dependent process, we performed genetic silencing of endogenous Chk2 in the 5-FU-R cells using target-specific SiRNAs.
Fig. 3 Chk2-dependent role of 4DPG in modulating p53 and repressing Vimentin expression in 5-FU-R cells. A Immunocytochemistry results showing the Vimentin expression level in SW-620/5-FU-R cells treated/transfected with scramble, SiChk2, scramble plus 4DPG, SiChk2 plus 4DPG, vehicle, PV1019, 4DPG, and PV1019 plus 4DPG for 48 h. Scale bars: 50 µm. […] C Matrigel invasion assay results showing invaded HCT-116/5-FU-R and SW-620/5-FU-R cells following 48 h of transient transfection with GFP and GFP-Chk2 plasmid construct. Scale bars: 50 µm. D Quantification of the number of invaded cells per field from the above experimental conditions. n = 3, error bars, mean ± SD; *P < 0.05, ***P < 0.001. E Immunocytochemistry results displaying Vimentin expression levels in HCT-116/5-FU-R and SW-620/5-FU-R cells after 48 h of transient transfection with pCDNA3 and/or HA-Chk2 plasmid construct. Scale bars: 50 µm. F Immunoprecipitation with Vimentin or p53 followed by western blotting analysis of p53 in SW-620/5-FU-R cells treated with vehicle and/or 4DPG (300 nM) for 48 h. G Cytosolic (left panel) and nuclear (right panel) extracts of SW-620/5-FU-R cells treated with vehicle and/or 4DPG (300 nM) for 48 h showing protein expression of Vimentin and p53. Tubulin and lamin expression was considered as endogenous loading controls for cytosolic and nuclear fractions, respectively.
We followed the standard protocol with some modifications for immunocytochemistry[56],[58]. In brief, cells, at a density of 4 × 10^5 cells/well, were seeded over the sterile coverslips placed in six-well plates. Following the respective treatment, cells were washed thrice with PBS. Next, the cells were fixed with 4% paraformaldehyde (pH = 7.4) for 15 min, permeabilized with 0.3% Triton X-100 for 10 min, and then blocked with 1% goat serum for 30 min. Consequently, the cells were incubated with anti-Vimentin antibody overnight at 4 °C, at a dilution of 1:100, followed by washing with PBST and further incubation with secondary anti-rabbit Alexa Fluor 488 (1:750 dilution). After subsequent washing and mounting, the images were captured at ×20 magnification under Floid Cell Imaging Station (Invitrogen).

[2] = system: orthotopic rat colorectal carcinoma; details: 25 mg/kg thrice a week for 3 weeks
Description: To examine the antitumor and anti-metastatic efficacy of 4DPG in vivo, we employed a carcinogen-induced orthotopic rat colorectal carcinoma model. […] The schematic representation briefly describes the steps involved in the generation of orthotopic colorectal tumors along with the treatment strategy and further analysis (details in “Materials and methods”). The animals were euthanized at the end of the experiment and evaluated for tumor and metastatic burden (Fig. 4A). […] To validate whether our in vitro observations on mechanistic inhibition of EMT and invasion by 4DPG hold true in vivo, we performed immunohistochemical analysis of the tumor tissues acquired from the saline and 4DPG-treated animal groups.
A Model depicting the procedure adopted for generating the carcinogen-induced orthotopic rat CRC model, treatment strategies of 4DPG, evaluation of tumor burden, and further biochemical analysis. B Representative images of large bowel showing the colorectal tumor growth in saline, 5-FU (25 mg/kg), and 4DPG (25 mg/kg) treated groups of animals. C, D Quantification of tumor volume and number of polyps per rat in above groups of animals. n = 6 rats per group, error bars: mean ± SD; *P < 0.05, **P < 0.01, ***P < 0.001. E Representative images of the lungs dissected from the above groups of animals showing metastatic tumor burden. Orange arrows indicating bumps of secondary tumors over each lobe of lungs. F, G Quantification of a number of macroscopic secondary tumors over the lung tissues and lung weight in the above groups of animals. n = 6 rats per group, error bars, mean ± SD; **P < 0.01, ***P < 0.001. […] Scale bar: 50 µm. I Western blots depicting expression of p-Chk2 (Thr68), Chk2, p53, p-Vimentin (Ser38), and Vimentin in tumor tissues obtained from saline- and 4DPG-treated groups of animals. β-Actin expression was taken as endogenous loading control. J Densitometry analysis of the above western blot bands portraying relative protein expression of the markers presented. n = 3, error bars: mean ± SD; **P < 0.01, ***P < 0.001.
Animal studies were performed following the guidelines approved by Institutional Animal Ethics Committee (IAEC No. 51/02/15) of CSIR-Indian Institute of Integrative Medicine, Jammu, India. The experiment was performed according to our standardized protocol described previously with necessary modifications. Five-weeks-old healthy male Wistar rats (body weight 150–200 g) were maintained in aseptic condition with free access to food and water. Animals were randomized into three groups, with six animals per group. All the rats received intrarectal instillation of 0.5 mL of freshly prepared 0.4% aqueous solution of N-methyl-N-nitrosourea (MNU) thrice a week for 3 weeks, for the orthotopic induction of colorectal tumors. The solution was injected using sterile syringe with attached 8-cm long rubber catheter tube inserted two-thirds into the colon lumen through anal orifice, as described previously. The animals were kept under continuous monitoring, and the body weight was measured once per week. Following 22 weeks after the initiation of MNU administration, treatment regimens were started by administering 5-FU (25 mg/kg), and 4DPG (25 mg/kg) thrice a week for 3 weeks. The control and treatment groups of animals were dosed separately by three independent investigators and the outcomes were assessed by a fourth investigator blind about the dosing process and treatment regimen.

SMILES: COc1cc([C@@H]2c3cc4c(cc3C[C@H]3COC(=O)[C@@H]32)OCO4)cc(OC)c1O[C@@H]1O[C@H](CO)[C@@H](O)[C@H](O)[C@H]1O [4DPG, 4′-demethyl-deoxypodophyllotoxin glucoside]
- p-Vimentin (ser38) and Vimentin expression levels in tumor tissues (immunohistochemistry) [1]: decreased
- protein levels of p-Chk2 (Thr68) and p53 in tumor tissues (immunohistochemistry) [1]: marked increase
- Vimentin expression level (immunocytochemistry) (SW-620/5-FU-R cells; 300 nM): considerable decrease
- inhibition of Vimentin level by 4DPG (SW-620/5-FU-R cells; PV1019 plus 4DPG): negligible inhibition
- inhibition of Vimentin level by 4DPG (SW-620/5-FU-R cells; SiChk2 plus 4DPG (Chk2-silenced)): mild inhibition
- Vimentin level (immunocytochemistry) (SW-620/5-FU-R cells; scramble plus 4DPG): substantial reduction
- lung metastases [2]: strongly prevented the development of lung metastases
- drug-related toxicity/adverse effects ([2]; until end of experiment): without any drug-related toxicity/adverse effects
- average number of polyps ([2]; control group 16): 3
- mean tumor volume ([2]; saline control 820.6 mm^3): 116.8 mm^3
